In the NIST ThermoML archive (doi:10.1016/j.jct.2015.09.022):

What was measured:
[1] = 100.7 kPa, Liquid; for viscosity: Falling or rolling sphere viscometry; for speed of sound: Frequency=3 MHz, Sing-around technique in a fixed-path interferometer; for mass density: Vibrating tube method
[2] = xn = mol fraction of the nth substance listed; conditions: 100.7 kPa, Liquid; for viscosity: Falling or rolling sphere viscometry; for speed of sound: Frequency=3 MHz, Sing-around technique in a fixed-path interferometer; for mass density: Vibrating tube method

CCCCN [1-butanamine]
[1]
Conditions	mass density [kg/m3]	speed of sound [m/s]	viscosity [mPa·s]
298.15 K	733.33	1246.5	0.47
303.15 K	728.5	1223.9	0.44
308.15 K	723.67	1201.3	0.41
313.15 K	718.66	1178.7	0.39
318.15 K	714.1	1156.2	0.37
323.15 K	709.21	1133.5	0.35

CCCC[n+]1ccn(C)c1.O=S(=O)([N-]S(=O)(=O)C(F)(F)F)C(F)(F)F
[1]
Conditions	mass density [kg/m3]	speed of sound [m/s]	viscosity [mPa·s]
298.15 K	1436.82	1227.8	50.04
303.15 K	1431.98	1217.5	40.72
308.15 K	1427.16	1205.2	33.73
313.15 K	1422.37	1194.4	28.28
318.15 K	1417.6	1184.5	24.01
323.15 K	1412.86	1171.3	20.32

CCCCOC(C)=O [butyl ethanoate] + CCCC[n+]1ccn(C)c1.O=S(=O)([N-]S(=O)(=O)C(F)(F)F)C(F)(F)F
[2], x2 = 0
Conditions	mass density [kg/m3]	speed of sound [m/s]	viscosity [mPa·s]
298.15 K	876	1190.5	0.67
303.15 K	870.86	1169.8	0.64
308.15 K	865.69	1149.2	0.58
313.15 K	860.49	1128.8	0.57
318.15 K	855.28	1108.5	0.53
323.15 K	850.03	1088.3	0.5

CCCC=O [butanal]
[1]
Conditions	mass density [kg/m3]	speed of sound [m/s]	viscosity [mPa·s]
298.15 K	796.99	1193.8	0.43
303.15 K	791.8	1172.7	0.4
308.15 K	786.41	1151.6	0.39
313.15 K	781.37	1130.6	0.36
318.15 K	776.39	1109.6	0.35
323.15 K	771.3	1088.8	0.32

CCCC[n+]1ccn(C)c1.O=S(=O)([N-]S(=O)(=O)C(F)(F)F)C(F)(F)F + CCCCN
[2], x1 = 1
Conditions	mass density [kg/m3]	speed of sound [m/s]	viscosity [mPa·s]
298.15 K	1436.82	1227.8	50.04
303.15 K	1431.98	1217.5	40.72
308.15 K	1427.16	1205.2	33.73
313.15 K	1422.37	1194.4	28.28
318.15 K	1417.6	1184.5	24.01
323.15 K	1412.86	1171.3	20.32

CCCCOC(C)=O [butyl ethanoate]
[1]
Conditions	viscosity [mPa·s]
298.15 K	0.67
303.15 K	0.64
308.15 K	0.58
313.15 K	0.57
318.15 K	0.53
323.15 K	0.5

CCCC[n+]1ccn(C)c1.O=S(=O)([N-]S(=O)(=O)C(F)(F)F)C(F)(F)F + CCCC=O
[2], x1 = 1
Conditions	mass density [kg/m3]	speed of sound [m/s]	viscosity [mPa·s]
298.15 K	1436.82	1227.8	50.04
303.15 K	1431.98	1217.5	40.72
308.15 K	1427.16	1205.2	33.73
313.15 K	1422.37	1194.4	28.28
318.15 K	1417.6	1184.5	24.01
323.15 K	1412.86	1171.3	20.32
